According to patent publication US11723886B2, “Targeting ocular diseases with novel APE1/Ref-1 inhibitors” (Indiana University Research and Technology Corporation, priority 2018, dated 2023):
pIC50: −log10 of the molar value.

Assays:
Ref-1 = Ref-1 (Homo sapiens, UniProt P27695); test: Electrophoretic mobility shift assay (redox EMSA), Ref-1-induced AP-1 DNA binding; format: biochemical; conditions: 30 min pre-incubation with purified Ref-1, read-out: IC50 for redox EMSA inhibition
Experimental: Electrophoretic mobility shift assays (EMSA). These assays were performed as previously described (Luo et al., Antioxid Redox Signal 10:18531867 (2008); Kelley et al., Antioxid Redox Signal 14:1387-1401 (2011); Su et al., Biochemistry 50:82-92 (2011); Luo et al., Biochemistry 51:695-705 (2012); Zhang et al., Biochemistry 52:2955-2966 (2013)). […] The EMSA assay was performed using the AP-1 target DNA sequence and AP-1 protein.

[1] = system: human retinal microvascular endothelial cells (HRECs); test: In vitro cell proliferation assay (alamarBlue), HRECs; format: cell-based; conditions: HREC, read-out: GI50 (median growth inhibition), HRECs
Experimental: (§1) Cells. Primary human retinal microvascular endothelial cells (HRECs) were obtained from Cell Systems, Inc. (Kirkland, Wash.), while the Rf/6a macacque choroidal endothelial cell line was obtained from ATCC (Manassas, Va.). Cells were maintained as described (Basavarajappa et al., EMBO Mol Med 9:786-801 (2017)), re-ordered at least annually, and regularly assessed for mycoplasma contamination.
(§2) In vitro cell proliferation assay. Endothelial cell proliferation was measured as described previously (Basavarajappa et al., PLoS One 9:e95694 (2014); Basavarajappa et al., EMBO Mol Med 9:786-801 (2017)). Briefly, 2.5×10^3 cells were seeded in 100 μL of growth medium and plated in each well of 96-well clear-bottom black plates and incubated for 24 hours. APX2009, APX2014, or DMSO vehicle (DMSO final concentration=1%) was added, and the plates were incubated for 24-48 hours in 100 μL complete medium at 37° C. and 5% CO2. AlamarBlue reagent (11.1 μL) was added to each well of the plate and 4 hours later fluorescence readings were taken at excitation and emission wavelengths of 560 nm and 590 nm, respectively, using a Synergy H1 plate reader (BioTek, Winooski, Vt.). GI50 was calculated using GraphPad Prism v. 7.0.

[2] = system: Rf/6a macaque choroidal endothelial cells; test: In vitro cell proliferation assay (alamarBlue), Rf/6a; format: cell-based; conditions: Macaca mulatta, Rf/6a choroidal endothelial cells, read-out: GI50 (median growth inhibition), Rf/6a
Experimental: as §1, §2

HRECs [3] = test: TUNEL apoptosis assay in HRECs; format: cell-based, human; conditions: anti-proliferative doses
Experimental: EdU incorporation, Ki-67 Staining and TUNEL. These assays were carried out as described previously (Basavarajappa et al., PLoS One 9:e95694 (2014); Basavarajappa et al., EMBO Mol Med 9:786-801 (2017)) with the exception of using chamber slides, not coverslips. Briefly, cells (30,000 per well) were seeded on 8-well chamber slides coated with attachment factors and allowed to attach overnight. Cells were treated with the indicated compound concentrations for 17 hours (overnight). To assay proliferation, cells were incubated with EdU in complete media for 8 hours at 37° C. Cells were then fixed in 4% paraformaldehyde for 20 minutes and permeabilized using 0.25% Triton X-100 prepared in PBS. Cells were incubated with a rabbit-specific monoclonal antibody against Ki-67 (D3B5) (#9129; Cell Signaling, Danvers, Mass.) (1:400) overnight at 4° C. Secondary antibody was Alexa Fluor goat anti-rabbit 488 (A11034; Invitrogen, Carlsbad, Calif.) with DAPI counter-stain for nuclear staining. Proliferating cells that incorporated EdU were detected using the Click-iT EdU Imaging kit (Invitrogen, Carlsbad, Calif.). […] The cells were imaged using a Zeiss AxioImager D2 microscope or an LSM 700 confocal microscope and the percentage of positive cells was counted on three low-power (for TUNEL) or high-power (for Ki-67 and EdU) fields per well using ImageJ software.

HRECs [4] = test: Scratch wound cell migration assay, HRECs; format: cell-based, human
Experimental: (§3) In vitro cell migration assay. Endothelial cell migration was monitored as described before (Basavarajappa et al., PLoS One 9:e95694 (2014); Basavarajappa et al., EMBO Mol Med 9:786-801 (2017)). Briefly, HRECs and Rf/6a were grown until confluency in 12-well plates. Using a sterile 10-μL micropipette tip, a scratch wound was made across the center of each well and fresh complete media containing DMSO or different concentrations of APX2009 or APX2014 compounds were added to the wells (DMSO final concentration=1%). Wells were imaged via digital brightfield microscopy at different time points, and the number of migrated cells into the scratched area was manually counted.

Rf/6a cells [5] = test: Scratch wound cell migration assay, Rf/6a; format: cell-based, macaque
Experimental: as §3

HRECs [6] = test: Matrigel tube formation assay, HRECs; format: cell-based, human; conditions: mid nanomolar concentrations, vs control
Experimental: (§4) In vitro Matrigel tube formation assay. The ability of HRECs and Rf/6a cells to form tubes in vitro was monitored as described before (Basavarajappa et al., PLoS One 9:e95694 (2014); Basavarajappa et al., EMBO Mol Med 9:786-801 (2017)). Briefly, cells were treated with the indicated concentrations of APX2009 or APX2014 compounds or DMSO for 48 hours and then 1.5×10^4 cells in 100 μL of growth medium containing DMSO or APX compounds were added to each well of a 96-well plate that was pre-coated with 50 μL of Matrigel basement membrane (DMSO final concentration=1%). Digital photographs of each well at different time points were taken to measure the in vitro tube formation using the Angiogenesis Analyzer plugin in ImageJ software (v.1.48; http://image.bio.methods.free.fr/ImageJ/?Angiogenesis-Analyzer-for-ImageJ.html).

Rf/6a cells [7] = test: Matrigel tube formation assay, Rf/6a; format: cell-based, macaque; conditions: mid nanomolar concentrations, vs control
Experimental: as §4

[8] = system: laser-induced choroidal neovascularization

Ref-1, sequence (P27695 whole entry): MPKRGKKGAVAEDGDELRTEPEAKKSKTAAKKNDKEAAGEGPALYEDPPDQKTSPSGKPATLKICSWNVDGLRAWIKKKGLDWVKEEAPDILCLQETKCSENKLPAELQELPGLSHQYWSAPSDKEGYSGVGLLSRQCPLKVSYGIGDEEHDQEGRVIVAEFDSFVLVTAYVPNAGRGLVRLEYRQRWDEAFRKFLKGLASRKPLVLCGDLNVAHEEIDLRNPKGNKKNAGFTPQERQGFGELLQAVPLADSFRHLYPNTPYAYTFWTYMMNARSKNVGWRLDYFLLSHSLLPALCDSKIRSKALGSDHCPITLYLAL

`CCC/C(=C\C1=C(OC)C(=O)c2ccccc2C1=O)C(=O)N(CC)CC` [APX2009, (2E)-2-[(3-methoxy-1,4-dioxo-1,4-dihydronaphthalen-2-yl)methylidene]-N,N-diethylpentanamide] was tested, and the pIC50 (Ref-1) was 6.35, the GI50 [1] was 1.1 µM and the GI50 [2] was 26 µM. For the same compound, the “apoptosis by TUNEL” value (HRECs [3]) was “neither compound induced apoptosis”, the “cell migration in scratch wound assay, HRECs” value (HRECs [4]) was “significantly inhibited” and the “cell migration in scratch wound assay, Rf/6a” value (Rf/6a cells [5]) was “significantly inhibited”. For the same compound, the “ability to form tubes, HRECs” value (HRECs [6]) was “significantly reduced”, the “ability to form tubes, Rf/6a” value (Rf/6a cells [7]) was “significantly reduced” and the “fluorescein leakage in lesions (fluorescein angiography)” value ([8]; 25 mg/kg i.p., Day 14) was “qualitatively less fluorescein leakage”. The “intraocular or systemic toxicity in vivo” value ([8]; i.p. dosing in L-CNV mice) was “not observed obvious intraocular or systemic toxicity”, the “effect on L-CNV” value ([8]; i.p., 12.5 mg/kg twice daily for two weeks) was “did not reduce L-CNV” and the “L-CNV on systemic administration (summary statement)” value [8] was “can attenuate L-CNV”.

In the case of `CCC/C(=C\C1=C(OC)C(=O)c2ccccc2C1=O)C(=O)NOC` [APX2014, (2E)-2-[(3-methoxy-1,4-dioxo-1,4-dihydronapthalen-2-yl)methylidene]-N-methoxypentanamide], the pIC50 (Ref-1) was 6.70, the GI50 [1] was 0.11 µM and the GI50 [2] was 5 µM. The “apoptosis by TUNEL” value (HRECs [3]) was “neither compound induced apoptosis”, the “cell migration in scratch wound assay, HRECs” value (HRECs [4]) was “significantly inhibited” and the “cell migration in scratch wound assay, Rf/6a” value (Rf/6a cells [5]) was “significantly inhibited”. The “ability to form tubes, HRECs” value (HRECs [6]) was “significantly reduced”, the “ability to form tubes, Rf/6a” value (Rf/6a cells [7]) was “significantly reduced” and the “L-CNV on systemic administration (summary statement)” value [8] was “can attenuate L-CNV”.
